From patent publication US20240150370A1, “BICYCLIC PYRIDINE DERIVATIVE” (Sumitomo Pharma Co., Ltd., priority 0001, published 2024)
Counter-ions that a name gives are not always drawn.

Columns and labels:
human TAAR1 receptor = human TAAR1 receptor (Homo sapiens (Human), UniProt Q96RJ0); test: Evaluation of agonist activity on human TAAR1 receptor (cAMP assay); assay type: cell-based; conditions: cAMP in human TAAR1-expressing CHO cells, relative to 100 μM tyramine; for activation at 0.1 µM / activation at 1 µM / activation at 10 µM: CHO, 0.5 h, read-out: TAAR1 agonist activity at each concentration (%); for TAAR1 agonist activity at each concentration (%): dihydrochloride
Description: TAAR1 is a G protein-coupled receptor that binds to G proteins (Gas), and activation of the TAAR1 receptor by agonists induces an increase in intracellular cAMP levels. Therefore, the agonist activity of the sample on the human TAAR1 receptor was evaluated using the cAMP assay method.
cAMP Hunter™ CHO-K1 TAAR1 Gs Cell Line, a cell expressing human TAAR1 receptor, was purchased. Human TAAR1-expressing CHO cells were seeded in a 96-well plate, and after culturing for 24 hours, a sample dissolved in DMSO was added and incubated at 37° C. for 30 minutes. A sample for cAMP measurement was prepared according to the cAMPHiRange kit protocol. The amount of cAMP produced by the sample was measured by time-resolved fluorescence using EnVision (excitation wavelength: 330 nm, fluorescence wavelength […]/665 nm).
Sample %=100×{(Csamp)−(Cblank)}/{(Ctyramine)−(Cblank)} • Csamp: count of sample, Ctyramine: count of 100 μM tyramine, Cblank: count of blank

hERG channel = hERG channel (Homo sapiens (Human), UniProt Q12809); test: Evaluation of hERG channel inhibitory activity (whole-cell patch clamp, hERG-CHO cells); assay type: cell-based; conditions: autopatch clamp, read-out: hERG inhibition IC50
hERG channel, sequence (Q12809 whole entry): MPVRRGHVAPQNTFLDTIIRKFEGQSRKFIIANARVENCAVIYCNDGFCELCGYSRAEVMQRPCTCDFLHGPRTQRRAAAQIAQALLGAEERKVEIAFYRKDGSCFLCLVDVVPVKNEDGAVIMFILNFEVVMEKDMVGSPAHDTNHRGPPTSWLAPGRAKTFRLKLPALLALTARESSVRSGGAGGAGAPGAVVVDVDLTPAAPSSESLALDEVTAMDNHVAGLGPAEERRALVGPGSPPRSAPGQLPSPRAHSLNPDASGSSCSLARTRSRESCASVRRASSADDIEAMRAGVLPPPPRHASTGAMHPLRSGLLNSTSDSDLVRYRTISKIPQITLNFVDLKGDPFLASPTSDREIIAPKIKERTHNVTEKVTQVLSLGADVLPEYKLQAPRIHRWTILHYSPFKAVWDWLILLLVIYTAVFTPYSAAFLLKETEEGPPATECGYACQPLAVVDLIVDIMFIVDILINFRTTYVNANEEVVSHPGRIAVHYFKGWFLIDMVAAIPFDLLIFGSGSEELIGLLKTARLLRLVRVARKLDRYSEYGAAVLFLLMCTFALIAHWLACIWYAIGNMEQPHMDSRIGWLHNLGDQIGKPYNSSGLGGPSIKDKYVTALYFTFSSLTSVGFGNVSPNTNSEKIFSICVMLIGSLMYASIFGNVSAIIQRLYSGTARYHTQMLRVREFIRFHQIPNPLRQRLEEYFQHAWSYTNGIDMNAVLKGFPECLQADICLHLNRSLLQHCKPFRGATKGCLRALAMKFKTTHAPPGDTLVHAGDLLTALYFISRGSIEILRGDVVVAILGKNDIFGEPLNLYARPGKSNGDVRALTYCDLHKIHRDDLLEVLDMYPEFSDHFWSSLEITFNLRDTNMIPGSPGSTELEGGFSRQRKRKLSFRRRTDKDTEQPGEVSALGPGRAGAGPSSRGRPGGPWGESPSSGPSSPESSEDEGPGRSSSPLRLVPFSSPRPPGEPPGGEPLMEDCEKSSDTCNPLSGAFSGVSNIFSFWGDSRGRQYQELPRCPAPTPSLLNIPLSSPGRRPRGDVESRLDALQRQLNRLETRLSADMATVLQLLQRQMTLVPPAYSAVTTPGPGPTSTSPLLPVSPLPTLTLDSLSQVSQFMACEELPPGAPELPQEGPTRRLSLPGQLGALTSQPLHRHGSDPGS

human TAAR1 receptor, sequence (Q96RJ0 whole entry, the tested form may be a part): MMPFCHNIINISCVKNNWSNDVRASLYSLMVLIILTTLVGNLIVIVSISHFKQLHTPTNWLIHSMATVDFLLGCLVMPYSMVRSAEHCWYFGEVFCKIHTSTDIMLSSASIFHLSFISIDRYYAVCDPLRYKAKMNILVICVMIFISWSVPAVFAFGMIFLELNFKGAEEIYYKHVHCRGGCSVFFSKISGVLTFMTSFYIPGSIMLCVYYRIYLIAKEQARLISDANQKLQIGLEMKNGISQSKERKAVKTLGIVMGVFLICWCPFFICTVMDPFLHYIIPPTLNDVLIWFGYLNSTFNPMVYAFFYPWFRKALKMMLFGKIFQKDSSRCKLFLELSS

| activation at 0.1 µM (human TAAR1 receptor; 100 nM) | activation at 1 µM (human TAAR1 receptor; 1000 nM) | activation at 10 µM (human TAAR1 receptor; 10000 nM) | TAAR1 agonist activity at each concentration (%) (human TAAR1 receptor; 100 nM) | TAAR1 agonist activity at each concentration (%) (human TAAR1 receptor; 1000 nM) | TAAR1 agonist activity at each concentration (%) (human TAAR1 receptor; 10000 nM) | Structure (SMILES) | IC50 (hERG channel) |
| --- | --- | --- | --- | --- | --- | --- | --- |
| 10% | 47% | 74% | – | – | – | C[C@@H]1C[C@@H](CN)c2ncccc2S1 (racemic) [Example 14] | > 100 µM |
| 24% | 67% | 90% | – | – | – | C[C@H]1Sc2cccnc2[C@@H]1CN (racemic) [Example 15] | > 100 µM |
| 6% | 37% | 76% | – | – | – | C[C@@H]1Sc2cccnc2[C@@H]1CN (racemic) [Example 16] | 68.6 µM |
| 25% | 71% | 101% | – | – | – | NC[C@H]1C[C@@H](c2ccccc2)Oc2cccnc21 (racemic) [Example 24] | 6.9 µM |
| 2% | 21% | 63% | – | – | – | NC[C@@H]1C[C@@H](c2ccccc2)Oc2cccnc21 (racemic) [Example 25] | 5.8 µM |
| 13% | 51% | 77% | – | – | – | CNCC1CCSc2cccnc21 (racemic) [Example 45, rac-1-(3,4-dihydro-2H-thiopyrano[3,2-b]pyridin-4-yl)-N-methylmethanamine dihydrochloride] | > 100 µM |
| 11% | 38% | 65% | – | – | – | COc1ccc2c(n1)C(CN)CCC2 (racemic) [Example 88, rac-1-(2-methoxy-5,6,7,8-tetrahydroquinolin-8-yl)methanamine dihydrochloride] | > 100 µM |
| 54% | 85% | 94% | – | – | – | Cc1ccc2c(n1)C(CN)C1(CC1)O2 (racemic) [Example 90, rac-1-(5′-methyl-3′H-spiro[cyclopropane-1,2′-furo[3,2-b]pyridine]-3′-yl)methanamine dihydrochloride] | 71.8 µM |
| 25% | 57% | 68% | – | – | – | NC[C@@H]1CCSc2cccnc21 (single isomer, unassigned) [Example 40, dihydrochloride] | > 100 µM |
| 12% | 38% | 65% | – | – | – | NC[C@H]1CSc2cccnc21 (single isomer, unassigned) [Example 41, dihydrochloride] | > 100 µM |
| 25% | 70% | 90% | – | – | – | NC[C@@H]1CSc2cccnc21 (single isomer, unassigned) [Example 42, dihydrochloride] | > 100 µM |
| 70% | 101% | 96% | – | – | – | NC[C@H]1c2ncccc2OC12CC2 (single isomer, unassigned) [Example 97, rel-1-[(3'S)-3′H-spiro[cyclopropane-1,2′-furo[3,2-b]pyridine]-3′-yl]methanamine dihydrochloride] | > 100 µM |
| 7% | 37% | 75% | – | – | – | C[C@@H]1COc2cccnc2[C@@H]1CN (stereo in doubt) [Example 2, rac-1-[(3S,4S)-3-methyl-3,4-dihydro-2H-pyrano[3,2-b]pyridin-4-yl]methanamine dihydrochloride] | > 100 µM |
| 11% | 56% | 84% | – | – | – | CC[C@H]1Oc2cccnc2[C@@H]1CN (stereo in doubt) [Example 22] | > 100 µM |
| 13% | 48% | 79% | – | – | – | CC[C@@H]1Oc2cccnc2[C@H]1CN (stereo in doubt) [Example 44, rel-1-[(2S,3R)-2-ethyl-2,3-dihydrofuro[3,2-b]pyridin-3-yl]methanamine dihydrochloride] | > 100 µM |
| – | – | – | 24% | 68% | 90% | CNC[C@@H]1C[C@@H](C)Oc2cccnc21 [Example 5, N-methyl-1-[(2R,4S)-2-methyl-3,4-dihydro-2H-pyrano[3,2-b]pyridin-4-yl]methanamine dihydrochloride] | > 100 µM |
| 16% | 57% | 75% | – | – | – | CNC[C@@H]1C[C@H](C)Oc2cccnc21 [Example 6] | > 100 µM |

| activation at 0.1 µM (human TAAR1 receptor; 100 nM) | activation at 1 µM (human TAAR1 receptor; 1000 nM) | activation at 10 µM (human TAAR1 receptor; 10000 nM) | TAAR1 agonist activity at each concentration (%) (human TAAR1 receptor; 100 nM) | TAAR1 agonist activity at each concentration (%) (human TAAR1 receptor; 1000 nM) | TAAR1 agonist activity at each concentration (%) (human TAAR1 receptor; 10000 nM) | Structure (SMILES) | IC50 (hERG channel) |
| --- | --- | --- | --- | --- | --- | --- | --- |
| 24% | 63% | 75% | – | – | – | C[C@H]1Oc2cc(F)cnc2[C@@H]1CN [Example 8, 1-[(2R,3S)-6-fluoro-2-methyl-2,3-dihydrofuro[3,2-b]pyridin-3-yl]methanamine dihydrochloride] | > 100 µM |
| 15% | 53% | 70% | – | – | – | NCC1CCSc2cccnc21 (stereo not shown) [Example 9] | > 100 µM |
| 20% | 58% | 79% | – | – | – | Cc1ccc2c(n1)C(CN)CS2 (stereo not shown) [Example 11] | > 100 µM |
| 21% | 58% | 75% | – | – | – | Cc1ccc2c(n1)C(CN)CCS2 (stereo not shown) [Example 12] | > 100 µM |
| 29% | 73% | 87% | – | – | – | Cc1ccc2c(n1)[C@H](CN)C[C@@H](C)O2 [Example 18] | > 100 µM |
| 35% | 74% | 91% | – | – | – | CC1(C)Oc2cccnc2C1CN (stereo not shown) [Example 23] | > 100 µM |
| 40% | 81% | 95% | – | – | – | C[C@H]1Oc2cccnc2[C@@H]1CN [Example 27, 1-[(2R,3S)-2-methyl-2,3-dihydrofuro[3,2-b]pyridin-3-yl]methanamine dihydrochloride] | > 100 µM |
| 51% | 93% | 104% | – | – | – | C[C@H]1Oc2ccc(F)nc2[C@@H]1CN [Example 29] | > 100 µM |
| 7% | 46% | 92% | – | – | – | CCNC[C@H]1c2ncccc2O[C@@H]1C [Example 74] | – |
| 0% | 26% | 75% | – | – | – | NCC1CCc2c(Cl)ccnc21 (stereo not shown) [Example 75] | – |
| 0% | 6% | 33% | – | – | – | CCOc1ccnc2c1CCC2CN (stereo not shown) [Example 76] | – |
| 0% | 11% | 47% | – | – | – | CC1CCC(CN)c2ncccc21 (stereo not shown) [Example 77] | – |
| 0% | 5% | 27% | – | – | – | CNCC1CC(C)c2cccnc21 (stereo not shown) [Example 78] | – |
| 17% | 48% | 62% | – | – | – | [2H]C([2H])([2H])NC[C@H]1c2ncc(F)cc2O[C@@H]1C [Example 80] | – |
| 48% | 86% | 95% | – | – | – | NCC1c2nc(Cl)ccc2OC12CC2 (stereo not shown) [Example 81] | – |
| 51% | 92% | 101% | – | – | – | NCC1c2nc(F)ccc2OC12CC2 (stereo not shown) [Example 82] | – |
